In experiment [1] the target is Tau-RD3 (Tau repeat domain 3) (Homo sapiens, UniProt P10636). The experiment is described as follows: Tau disaggregation test by Thioflavin-T analysis. The format is biochemical. On the procedure: (§1) Each compound was dissolved in DMSO to a concentration of 10 mM. Then, the compounds were diluted with 6 % DMSO (in DW) for use.
(§2) Amyloid-beta and tau solutions were prepared by dissolving Aβ1-42 or Tau-RD3 (Tau repeat domain 3) monomers in DMSO to a concentration of 10 mM. Then, the solutions were diluted to 100 µM with DW and stored on ice.
(§3) Meanwhile, Thioflavin-T was dissolved in 50 mM glycine buffer (pH 8.5) to a concentration of 5 mM. Then, the solution was diluted to 5 µM with 50 mM glycine buffer (pH 8.5) and stored in the dark, protected from light.
(§4) The amyloid-beta and tau solutions prepared in Example 1.1 were each placed in 1.5 mL microcentrifuge tubes to a concentration of 50 µM or 35 µM, respectively, and then reacted at 37 °C for 24 hours.
(§5) To each 1.5 mL microcentrifuge tube in which the amyloid-beta and tau aggregation was complete, the compounds were added at concentrations ranging from 500 µM down to 0 µM by serial dilution, and then further reacted at 37 °C for 48 hours.
(§6) 25 µL of each completed reaction solution was added to each well of a 96-well fluorescence analysis plate, and 75 µL of the Thioflavin-T solution was added to each well. After reacting for 5 minutes at room temperature in the dark, the fluorescence value was measured at 450 nm (excitation) and 485 nm (emission) using a multi-mode microplate reader.
(§7) The fluorescence value of the group (control group) treated with only amyloid-beta or tau and aggregated for 72 hours was designated as 100 %. The fluorescence values measured after treating the amyloid-beta and tau aggregates (formed by reacting for 24 hours) with each compound by concentration and reacting for an additional 48 hours were converted to relative values.

In another experiment the target is T1, Aβ1-42 (Homo sapiens, UniProt P05067).
T1 construct: dissolving Aβ1-42 or Tau-RD3 (Tau repeat domain 3) monomers in DMSO
T1 sequence (P05067 672-713 limits assumed): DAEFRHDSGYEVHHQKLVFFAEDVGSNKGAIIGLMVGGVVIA
The experiment can be described thus: Amyloid-beta disaggregation test by Thioflavin-T analysis. Format: biochemical. On the procedure:
as §1, §2, §3, §4, §5, §6, §7

Setting [2] is: Tau-RD3 35 µM aggregated 24 hours, then compound 0 - 500 µM for 48 hours at 37 °C; concentration disaggregating 50 % of aggregates vs control; read-out: EC50 (µM) Tau.
Where [3] appears, read: Aβ1-42 50 µM aggregated 24 hours, then compound 0 - 500 µM for 48 hours at 37 °C; concentration disaggregating 50 % of aggregates vs control; read-out: EC50 (µM) Aβ.
The mark [4] stands for this setting: statement in words summarising the Thioflavin-T results.

pEC50: −log10 of the molar value. Like-named read-outs stand apart in the source and are kept apart here.

Chain of Tau-RD3 (Tau repeat domain 3) (P10636 623-653 limits assumed): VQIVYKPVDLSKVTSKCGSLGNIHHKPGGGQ

Turning to `O=C1C(c2cccc(N3CCOCC3)c2)=C(c2ccccc2)c2ccc(Cl)cc21` [Compound 73-7, 6-chloro-2-(3-morpholinophenyl)-3-phenyl-1H-inden-1-one], the EC50 in experiment [1] (setting [2]) was greater than 250 µM; on Aβ1-42 (setting [3]), less than 20 µM.
For `Cc1ccccc1C1=C(c2ccccc2)c2ccccc2C1=O` [Compound 6, 3-phenyl-2-(o-tolyl)-1H-inden-1-one], the results for the EC50 (in experiment [1] (setting [2]); on Aβ1-42 (setting [3])) were greater than 250 µM and 20 to 100 µM, respectively.
In the case of `O=C1C(c2cccnc2)=C(c2cn[nH]c2)c2ccc(OCCCc3ccccc3)cc21` [Compound 43, 6-(3-phenylpropoxy)-3-(1H-pyrazol-4-yl)-2-(pyridin-3-yl)-1H-inden-1-one], the EC50 (in experiment [1] (setting [2]); at Aβ1-42 (setting [3])) was greater than 250 µM each time.
In the case of `Cc1ncsc1C1=C(c2cccnc2)C(=O)c2ccccc21` [Compound 19, 3-(4-methylthiazol-5-yl)-2-(pyridin-3-yl)-1H-inden-1-one], the EC50 in experiment [1] (setting [2]) is 100 to 250 µM; at Aβ1-42 (setting [3]), greater than 250 µM.
For `Cc1ncsc1C1=C(c2scnc2C)c2ccc(N3CCN(C)CC3)cc2C1=O` [Compound 79, 6-(4-methylpiperazin-1-yl)-2,3-bis(4-methylthiazol-5-yl)-1H-inden-1-one], the EC50 (in experiment [1] (setting [2]); on Aβ1-42 (setting [3])) was 20 to 100 µM throughout.
Regarding `COc1ccccc1C1=C(c2cccnc2)C(=O)c2cc(OCCCc3ccccc3)ccc21` [Compound 44, 3-(2-methoxyphenyl)-6-(3-phenylpropoxy)-2-(pyridin-3-yl)-1H-inden-1-one], the values for the EC50 (in experiment [1] (setting [2]); on Aβ1-42 (setting [3])) were greater than 250 µM and less than 20 µM, respectively.
Consider `CC(C)Oc1ccc2c(c1)C(=O)C(c1ccccc1)=C2c1ccccc1` [Compound 4, isopropoxy-2,3-diphenyl-1H-inden-1-one], for which the EC50 was greater than 250 µM in experiment [1] (read-out: EC50 (µM) Tau; Tau-RD3 35 µM aggregated 24 hours, then compound 0 - 500 µM for 48 hours at 37 °C; concentration disaggregating 50 % of aggregates vs control) and 20 to 100 µM on Aβ1-42 (read-out: EC50 (µM) Aβ; Aβ1-42 50 µM aggregated 24 hours, then compound 0 - 500 µM for 48 hours at 37 °C; concentration disaggregating 50 % of aggregates vs control).
With `Cc1ncsc1C1=C(c2scnc2C)c2ccc(OCCCc3ccccc3)cc2C1=O` [Compound 77, 2,3-bis(4-methylthiazol-5-yl)-6-(3-phenylpropoxy)-1H-inden-1-one], the EC50 (in experiment [1] (setting [2]); on Aβ1-42 (setting [3])) was less than 20 µM each time.
With `CN1CCN(c2cccc(C3=C(c4ccccc4)C(=O)c4ccccc43)c2)CC1` [Compound 95, 3-(3-(4-methylpiperazin-1-yl)phenyl)-2-phenyl-1H-inden-1-one], the EC50 was greater than 250 µM in experiment [1] (setting [2]) and 20 to 100 µM at Aβ1-42 (setting [3]).
With `Cc1ncsc1C1=C(c2cccnc2)C(=O)c2cc(NC(=O)CCc3ccccc3)ccc21` [Compound 60, N-(3-(4-methylthiazol-5-yl)-1-oxo-2-(pyridin-3-yl)-1H-inden-6-yl)-3-phenylpropanamide], the EC50 is less than 20 µM in experiment [1] (setting [2]) and 20 to 100 µM on Aβ1-42 (setting [3]).
In the case of `Cc1ncsc1C1=C(c2cc[nH]n2)C(=O)c2cc(OCCCc3ccccc3)ccc21` [Compound 25, 3-(4-methylthiazol-5-yl)-6-(3-phenylpropoxy)-2-(1H-pyrazol-3-yl)-1H-inden-1-one], the EC50 in experiment [1] (setting [2]) is greater than 250 µM; at Aβ1-42 (setting [3]), less than 20 µM.
With `Cc1ncsc1C1=C(c2cccnc2)C(=O)c2cc(NC(=O)C3CCOCC3)ccc21` [Compound 61, N-(3-(4-methylthiazol-5-yl)-1-oxo-2-(pyridin-3-yl)-1H-inden-6-yl)tetrahydro-2H-pyran-4-carboxamide], the EC50 (in experiment [1] (setting [2]); on Aβ1-42 (setting [3])) was greater than 250 µM in each case.
With `CN1CCN(c2ccc3c(c2)C(=O)C(c2cccc(N4CCOCC4)c2)=C3c2ccccc2)CC1` [Compound 73, 6-(4-methylpiperazin-1-yl)-2-(3-morpholinophenyl)-3-phenyl-1H-inden-1-one], the EC50 (in experiment [1] (setting [2]); on Aβ1-42 (setting [3])) was 100 to 250 µM in each case.
`Cc1ncsc1C1=C(c2cccnc2)C(=O)c2cc(O)ccc21` [Compound 35, 6-hydroxy-3-(4-methylthiazol-5-yl)-2-(pyridin-3-yl)-1H-inden-1-one]: the EC50 (in experiment [1] (setting [2]); on Aβ1-42 (setting [3])) was 20 to 100 µM throughout.
Consider `CC(=O)Oc1ccc2c(c1)C(=O)C(Br)=C2c1ccn(C)n1` [Compound 24, 2-bromo-3-(1-methyl-1H-pyrazol-3-yl)-1-oxo-1H-inden-6-yl acetate], for which the figures for the EC50 (in experiment [1] (setting [2]); at Aβ1-42 (setting [3])) were less than 20 µM and greater than 250 µM, respectively.
Regarding `O=C1C(c2ccccc2)=C(c2ccccc2)c2ncccc21` [Compound 98, 6,7-diphenyl-5H-cyclopenta[b]pyridin-5-one], the EC50 (in experiment [1] (setting [2]); on Aβ1-42 (setting [3])) was greater than 250 µM each time.
In the case of `Cc1ccccc1C1=C(c2ccccc2)C(=O)c2ccccc21` [Compound 5, 2-phenyl-3-(o-tolyl)-1H-inden-1-one], the EC50 in experiment [1] (setting [2]) was greater than 250 µM; at Aβ1-42 (setting [3]), 20 to 100 µM.
`Cc1ncsc1C1=C(c2ccncc2)C(=O)c2cc(OCCCc3ccccc3)ccc21` [Compound 39, 3-(4-methylthiazol-5-yl)-6-(3-phenylpropoxy)-2-(pyridin-4-yl)-1H-inden-1-one]: the EC50 was greater than 250 µM in experiment [1] (setting [2]) and less than 20 µM on Aβ1-42 (setting [3]).
Consider `Cc1ccccc1C1=C(c2c(C)cccc2C)c2ccc(O)cc2C1=O` [Compound 84, 3-(2,6-dimethylphenyl)-6-hydroxy-2-(o-tolyl)-1H-inden-1-one], for which the EC50 (in experiment [1] (setting [2]); on Aβ1-42 (setting [3])) was less than 20 µM in each case. Further, the “disaggregation effect for tau protein aggregates” value in experiment [1] (setting [4]) is “remarkably excellent disaggregation effect”. For the same compound, on Aβ1-42 (setting [4]), the “disaggregation effect for amyloid-beta protein aggregates” value was “remarkably excellent disaggregation effect”.
Turning to `Cc1ncsc1C1=C(c2cccnc2)C(=O)c2cc(SCCCc3ccccc3)ccc21` [Compound 57, 3-(4-methylthiazol-5-yl)-6-((3-phenylpropyl)thio)-2-(pyridin-3-yl)-1H-inden-1-one], the EC50 (in experiment [1] (setting [2]); on Aβ1-42 (setting [3])) was less than 20 µM in each case. In addition, the “disaggregation effect for tau protein aggregates” value in experiment [1] (setting [4]) is recorded as “remarkably excellent disaggregation effect”. For the same compound, the “disaggregation effect for amyloid-beta protein aggregates” value on Aβ1-42 (setting [4]) is reported as “remarkably excellent disaggregation effect”.
Consider `Cc1ncsc1C1=C(c2cccnc2)C(=O)c2cc(NC3CCN(C)CC3)ccc21` [Compound 51, 6-((1-methylpiperidin-4-yl)amino)-3-(4-methylthiazol-5-yl)-2-(pyridin-3-yl)-1H-inden-1-one], for which the EC50 was 20 to 100 µM in experiment [1] (setting [2]) and less than 20 µM at Aβ1-42 (setting [3]).
For `COc1cc(OC)c2c(c1)C(=O)C(c1ccccc1)=C2c1ccccc1` [Compound 97, 4,6-dimethoxy-2,3-diphenyl-1H-inden-1-one] the same measures were greater than 250 µM and less than 20 µM.
Take `O=C1C(c2ccccc2)=C(Br)c2ccccc21` [Compound 5-4, 3-bromo-2-phenyl-1H-inden-1-one]: the EC50 (in experiment [1] (setting [2]); at Aβ1-42 (setting [3])) was less than 20 µM throughout. For the same compound, in experiment [1] (setting [4]), the “disaggregation effect for tau protein aggregates” value is “remarkably excellent disaggregation effect”. Moreover, on Aβ1-42 (setting [4]), the “disaggregation effect for amyloid-beta protein aggregates” value is on record as “remarkably excellent disaggregation effect”.
Take `Cc1ncsc1C1=C(c2ccc(CN3CCOCC3)cc2)C(=O)c2ccccc21` [Compound 87, 3-(4-methylthiazol-5-yl)-2-(4-(morpholinomethyl)phenyl)-1H-inden-1-one]: the EC50 in experiment [1] (setting [2]) was 20 to 100 µM; on Aβ1-42 (setting [3]), less than 20 µM.
For `Cn1cc(C2=C(c3cccnc3)C(=O)c3cc(OCCCc4ccccc4)ccc32)cn1` [Compound 42, 3-(1-methyl-1H-pyrazol-4-yl)-6-(3-phenylpropoxy)-2-(pyridin-3-yl)-1H-inden-1-one] the same measures were greater than 250 µM and greater than 250 µM.
Take `Cc1ncsc1C1=C(c2ccn(C3CCN(C)CC3)n2)C(=O)c2cc(OCCCc3ccccc3)ccc21` [Compound 29, 2-(1-(1-methylpiperidin-4-yl)-1H-pyrazol-3-yl)-3-(4-methylthiazol-5-yl)-6-(3-phenylpropoxy)-1H-inden-1-one]: in experiment [1] (setting [2]), the EC50 is greater than 250 µM. The compound further gave a pEC50 at Aβ1-42 of less than 3.60.
As to `Cc1cc(OCCCc2ccccc2)cc2c1C(c1scnc1C)=C(c1cccnc1)C2=O` [Compound 46, 4-methyl-3-(4-methylthiazol-5-yl)-6-(3-phenylpropoxy)-2-(pyridin-3-yl)-1H-inden-1-one], the EC50 (in experiment [1] (setting [2]); at Aβ1-42 (setting [3])) was less than 20 µM throughout. In experiment [1] (setting [4]), the “disaggregation effect for tau protein aggregates” value is given as “remarkably excellent disaggregation effect”. On Aβ1-42 (setting [4]), the “disaggregation effect for amyloid-beta protein aggregates” value was “remarkably excellent disaggregation effect”.
Take `Cc1ncsc1C1=C(c2cccnc2)C(=O)c2cc(N3CCN(C)CC3)ccc21` [Compound 64, 6-(4-methylpiperazin-1-yl)-3-(4-methylthiazol-5-yl)-2-(pyridin-3-yl)-1H-inden-1-one]: the values for the EC50 (in experiment [1] (setting [2]); at Aβ1-42 (setting [3])) were 100 to 250 µM and 20 to 100 µM, respectively.

What is called EC50 is the concentration giving half of the maximal effect. As usually defined, the pEC50 is −log10 of the EC50, conventionally taken in molar units. A lower pEC50 goes with a large EC50.

Source of the values: patent EP4745117A1, “NOVEL INDENONE DERIVATIVE AND USE THEREOF” (Amyloid Solution Inc., priority 2023, dated 2025).
